From ChEMBL document CHEMBL5046286, “Discovery of MAP855, an Efficacious and Selective MEK1/2 Inhibitor with an ATP-Competitive Mode of Action” (J Med Chem, 2022) come the findings set out here.

Series [1] can be described thus: AUC in Wistar rat at 10 mg/kg, po measured up to 24 hrs by LC-MS/MS analysis. It is filed as ADME, organism-based. Also noted: route oral, dose 10 mg/kg, time <=24. As to conditions: in vivo.
Series [2] is described as follows: Oral bioavailability in Wistar rat at 10 mg/kg measured up to 24 hrs by LC-MS/MS analysis. The series is classed as ADME, organism-based. As to conditions: in vivo, 10 mg/kg, 24 h.
Series [3] in a line: AUC in CD1 mouse at 10 mg/kg, po measured up to 24 hrs by LC-MS/MS analysis. As to conditions: in vivo. It is filed as ADME, organism-based. Further details: route oral, dose 10 mg/kg, time <=24.
Series [4] has as its target High affinity nerve growth factor receptor (Homo sapiens, UniProt P04629). Briefly: Inhibition of wild-type human partial length TRKA (G475 to G790 residues) expressed in mammalian expression system by Kinomescan method.
Series [5] can be described thus: Oral bioavailability in CD1 mouse at 10 mg/kg measured up to 24 hrs by LC-MS/MS analysis. The series is classed as ADME, organism-based. The conditions noted are these: in vivo.
Series [6] concerns Mus musculus. The series can be described thus: In vivo inhibition of MEK phosphorylation in human A-375 cells xenografted CD1 mouse at 30 mg/kg bid via oral gavage measured after 8 hrs by ELISA method. The series is classed as functional, organism-based. (In xenograft studies the graft and the host belong to different species.)
The target in series [7] is Mitogen-activated protein kinase 1 (Homo sapiens) (UniProt P28482). The series can be described thus: Inhibition of full length human ERK2 using LCB-FFKNIVTPRTPPP as substrate preincubated for 45 mins followed by substrate addition and measured after 90 mins. As to conditions: time 135.0 min.
Mitogen-activated protein kinase 1 (Homo sapiens), sequence (P28482 whole entry): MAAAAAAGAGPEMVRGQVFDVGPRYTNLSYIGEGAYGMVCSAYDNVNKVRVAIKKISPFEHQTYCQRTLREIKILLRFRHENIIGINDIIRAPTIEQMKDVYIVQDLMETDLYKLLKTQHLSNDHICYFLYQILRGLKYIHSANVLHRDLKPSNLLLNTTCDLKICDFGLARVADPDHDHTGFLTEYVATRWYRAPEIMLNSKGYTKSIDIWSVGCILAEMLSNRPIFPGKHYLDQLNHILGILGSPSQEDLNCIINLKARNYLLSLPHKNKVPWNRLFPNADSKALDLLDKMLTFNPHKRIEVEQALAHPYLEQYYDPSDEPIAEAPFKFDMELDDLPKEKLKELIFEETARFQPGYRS
Series [8] is described as follows: Volume of distribution at steady state in Wistar rat at 3 mg/kg, iv measured up to 24 hrs by LC-MS/MS analysis. It is filed as ADME, organism-based. The conditions noted are these: in vivo, read-out: Vdss.
Series [9] can be described thus: Octanol-water partition coefficient, logP of the compound by LC-MS analysis. It is filed as physicochemical.
Series [10] in a line: AUC in Beagle dog at 10 mg/kg, po measured up to 24 hrs by LC-MS/MS analysis. The series is classed as ADME, organism-based, Canis lupus familiaris. Further details: route oral, dose 10 mg/kg, time <=24. As to conditions: in vivo.
Series [11] concerns Serine/threonine-protein kinase B-raf (Homo sapiens), P15056 [V600E]. Briefly: Inhibition of full length human BRAF V599E mutant using LCB-FFKNIVTPRTPPP as substrate preincubated for 45 mins followed by substrate addition and measured after 90 mins. The conditions noted are these: time 135.0 min.
Serine/threonine-protein kinase B-raf (Homo sapiens), P15056 [V600E], sequence (P15056 whole entry V600E): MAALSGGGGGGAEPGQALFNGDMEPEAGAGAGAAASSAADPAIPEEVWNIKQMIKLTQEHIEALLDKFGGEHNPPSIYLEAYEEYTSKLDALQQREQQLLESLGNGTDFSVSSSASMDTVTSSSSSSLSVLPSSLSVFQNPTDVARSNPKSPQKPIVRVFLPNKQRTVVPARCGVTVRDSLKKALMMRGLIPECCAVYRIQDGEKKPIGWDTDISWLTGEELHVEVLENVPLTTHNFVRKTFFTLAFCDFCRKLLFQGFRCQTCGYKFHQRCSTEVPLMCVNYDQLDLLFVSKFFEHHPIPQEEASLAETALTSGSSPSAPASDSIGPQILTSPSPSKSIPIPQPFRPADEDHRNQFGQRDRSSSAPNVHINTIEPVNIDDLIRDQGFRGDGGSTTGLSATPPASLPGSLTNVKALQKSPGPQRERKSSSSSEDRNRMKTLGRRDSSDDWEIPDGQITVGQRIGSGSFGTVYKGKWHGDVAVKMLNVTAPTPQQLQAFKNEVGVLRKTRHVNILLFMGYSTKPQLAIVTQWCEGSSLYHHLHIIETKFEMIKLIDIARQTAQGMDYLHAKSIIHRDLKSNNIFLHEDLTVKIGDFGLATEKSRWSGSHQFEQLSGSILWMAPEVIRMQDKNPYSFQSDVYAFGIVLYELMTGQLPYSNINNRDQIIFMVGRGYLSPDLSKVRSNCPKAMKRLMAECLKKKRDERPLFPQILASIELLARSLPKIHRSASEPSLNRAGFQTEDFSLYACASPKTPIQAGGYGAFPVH
Series [12] in a line: Toxicity in CD1 mouse xenografted with human A-375 cells assessed as body weight loss at 30 mg/kg bid via oral gavage. The series is classed as organism-based. The conditions noted are these: in vivo.
A short description of series [13]: Volume of distribution at steady state in Beagle dog at 3 mg/kg, iv measured up to 24 hrs by LC-MS/MS analysis. It is filed as ADME, organism-based, Canis lupus familiaris. The conditions noted are these: in vivo, read-out: Vdss.
A short description of series [14]: Oral bioavailability in Beagle dog at 10 mg/kg measured up to 24 hrs by LC-MS/MS analysis. The conditions noted are these: in vivo. The series is classed as ADME, organism-based, Canis lupus familiaris.
Series [15] in a line: Volume of distribution at steady state in CD1 mouse at 3 mg/kg, iv measured up to 24 hrs by LC-MS/MS analysis. As to conditions: in vivo, read-out: Vdss. The series is classed as ADME, organism-based.
Series [16] has as its system Mus musculus. The series can be described thus: In vivo inhibition of SPRY4 in human A-375 cells xenografted CD1 mouse at 30 mg/kg bid via oral gavage measured after 8 hrs by RT-PCR method. The series is classed as functional, organism-based.
For series [17], the target named is Dual specificity mitogen-activated protein kinase kinase 1 (Homo sapiens, UniProt Q02750). As to conditions: time 120.0 min.
Dual specificity mitogen-activated protein kinase kinase 1, sequence (Q02750 whole entry): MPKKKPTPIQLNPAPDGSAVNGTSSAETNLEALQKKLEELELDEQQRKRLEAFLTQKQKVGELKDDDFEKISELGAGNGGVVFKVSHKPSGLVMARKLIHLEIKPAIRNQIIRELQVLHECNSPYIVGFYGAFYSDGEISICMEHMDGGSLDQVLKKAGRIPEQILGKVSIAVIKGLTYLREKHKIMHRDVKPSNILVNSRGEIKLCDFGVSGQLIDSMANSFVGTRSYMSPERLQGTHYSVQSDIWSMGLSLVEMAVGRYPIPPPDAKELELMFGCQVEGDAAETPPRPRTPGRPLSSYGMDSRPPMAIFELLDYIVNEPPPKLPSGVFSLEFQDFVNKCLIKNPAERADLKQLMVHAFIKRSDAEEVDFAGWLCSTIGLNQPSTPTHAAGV
In series [18] the test system is Mus musculus. The series can be described thus: In vivo inhibition of DUSP6 in human A-375 cells xenografted CD1 mouse at 30 mg/kg bid via oral gavage measured after 8 hrs by RT-PCR method. The series is classed as functional, organism-based.
Another series concerns the target Cytochrome P450 3A4 (Homo sapiens, UniProt P08684). The series can be described thus: Inhibition of CYP3A4 (unknown origin). The series is classed as ADME.
Series [19] is described as follows: Inhibition of ERK phosphorylation in human A-375 cells incubated for 3 hrs by DELFIA assay. The series is classed as cell-based. The conditions noted are these: A-375, 3 h.
Series [20] has as its system Mus musculus. Briefly: In vivo inhibition of ERK phosphorylation in human A-375 cells xenografted CD1 mouse at 30 mg/kg bid via oral gavage measured after 8 hrs by ELISA method. The series is classed as functional, organism-based.

The source made the active and inactive calls. No cut-off for these calls is given here.

Cytochrome P450 3A4, sequence (P08684 whole entry): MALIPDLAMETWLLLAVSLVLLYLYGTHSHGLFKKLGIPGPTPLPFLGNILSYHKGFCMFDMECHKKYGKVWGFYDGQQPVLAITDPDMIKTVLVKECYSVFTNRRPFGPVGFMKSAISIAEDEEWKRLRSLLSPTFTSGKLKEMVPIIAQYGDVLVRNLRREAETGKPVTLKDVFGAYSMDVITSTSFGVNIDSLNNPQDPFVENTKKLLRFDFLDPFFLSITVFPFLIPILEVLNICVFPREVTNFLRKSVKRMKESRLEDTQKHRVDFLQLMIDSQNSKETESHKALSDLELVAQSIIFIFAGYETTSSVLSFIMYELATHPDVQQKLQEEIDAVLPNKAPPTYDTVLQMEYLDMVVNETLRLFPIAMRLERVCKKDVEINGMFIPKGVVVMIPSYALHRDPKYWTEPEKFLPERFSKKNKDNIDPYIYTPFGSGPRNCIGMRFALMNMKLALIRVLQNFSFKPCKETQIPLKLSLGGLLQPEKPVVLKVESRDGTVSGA
High affinity nerve growth factor receptor, sequence (P04629 whole entry, the tested form may be a part): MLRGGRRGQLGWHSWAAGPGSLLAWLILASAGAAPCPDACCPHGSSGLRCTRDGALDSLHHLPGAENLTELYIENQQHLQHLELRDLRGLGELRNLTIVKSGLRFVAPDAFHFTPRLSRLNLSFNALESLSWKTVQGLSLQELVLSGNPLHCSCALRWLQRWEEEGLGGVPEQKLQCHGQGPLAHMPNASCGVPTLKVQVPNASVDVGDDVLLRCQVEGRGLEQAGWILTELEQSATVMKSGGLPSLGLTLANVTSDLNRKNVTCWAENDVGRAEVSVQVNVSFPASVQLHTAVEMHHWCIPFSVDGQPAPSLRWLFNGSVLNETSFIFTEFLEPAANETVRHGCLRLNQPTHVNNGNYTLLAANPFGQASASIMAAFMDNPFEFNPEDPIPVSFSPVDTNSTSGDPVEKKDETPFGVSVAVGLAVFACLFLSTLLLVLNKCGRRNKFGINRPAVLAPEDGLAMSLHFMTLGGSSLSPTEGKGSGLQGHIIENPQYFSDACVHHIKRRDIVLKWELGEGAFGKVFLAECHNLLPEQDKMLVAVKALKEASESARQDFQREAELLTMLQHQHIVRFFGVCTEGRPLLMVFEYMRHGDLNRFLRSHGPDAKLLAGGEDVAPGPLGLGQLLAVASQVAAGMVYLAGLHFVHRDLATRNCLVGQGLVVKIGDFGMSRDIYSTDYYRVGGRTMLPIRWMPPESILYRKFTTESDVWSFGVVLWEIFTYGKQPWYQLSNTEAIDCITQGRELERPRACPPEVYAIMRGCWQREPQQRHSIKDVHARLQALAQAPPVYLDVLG

One may read the AUC as the area under the concentration-time curve, a measure of exposure. A lower AUC goes with less exposure. The term IC50 denotes the midpoint of a concentration-inhibition curve. Read a low IC50 as higher potency. One may read the logP as a log measure of how a compound divides between an organic and an aqueous phase. A high value points to higher lipophilicity. As a reminder, the EC50 is the concentration giving half of the maximal effect. Low readings indicate an effect from little substance, high ones a need for much substance. On to `Cc1nc2cnc3cc(F)c(-c4ccc(Oc5ncccn5)cc4Cl)cc3c2n1[C@H]1CCN(C(=O)CO)C[C@@H]1F`, for which the AUC in series [1] is 0.6 µM·h; in [3] it was 0.4 µM·h; in [10], 1.4 µM·h. In addition, the figures for the F in [2], in series [5] and in series [14] were 65%, 44% and 100%, respectively. In addition, the IC50 is 0.025 µM in series [4] and 7.7 µM against Cytochrome P450 3A4. For the same compound, the outcome in the series with Mus musculus [6], in the series on Mus musculus [16], with Mus musculus [18] and in the series with Mus musculus [20] was Active. The inhibition result in series [7] and in [11] was “inactive” throughout. For the same compound, the Vd is 2 L/kg in series [8], 1.8 L/kg in [13] and 2.6 L/kg in series [15]. The compound also displayed a logP in [9] of 1.6. Moreover, in series [12], the Activity entry is recorded as “Non-Toxic”. The T1/2 in [17] amounted to 1.62 h. Besides, in series [19], a half-maximal response (EC50) required 5 µM.
